Laboratory results taken from patent US11786466B2, “Topical formulations for treating dermatological disorders including male pattern baldness” (XYON HEALTH INC., priority 2017, dated 2023).

How the values were obtained:
[1] = tested on: dihydrotestosterone (DHT); conditions: cited from earlier work
5-α-reductase = conditions: cited from earlier work
[2] = In vitro skin permeation, modified Franz-type diffusion cell; type: in vitro ADME; conditions: human epidermis, receiver compartment, n = 5
Protocol: An original Franz-type diffusion cell system was modified to accommodate widened vertical columns and removal of the bowl shape. The diffusion area was 0.636 cm^2 with a receiver capacity of approximately 3.0 mL. The receiver volume for each cell was individually calibrated.
Human epidermis samples were prepared according to standard protocols. […] The samples were used as a membrane between the two chambers in the Franz cells. After about 6-8 hours, fat cells were carefully removed from the full thickness skin. The skin sections were cut into 2.5×2.5 cm squares, sealed in aluminum foil and frozen at −20° C. Prior to preparation, the samples were thawed to room temperature, immersed in 60° C. water, and the epidermis was gently separated from the remaining tissue with forceps and allowed to dry.
Before being mounted on the Franz cell, each epidermal sheet was visually inspected to avoid any possible defects. Additionally, the electrical resistance of isolated epidermis was measured to ensure the integrity of the barrier membrane. Epidermis samples with a resistance above 18 kΩ/cm^3 were used for experiments.
The upper and lower parts of the Franz cell were sealed with paraffin film and fastened together by a clamp. […]
Dutasteride concentration was determined using LC/MS-MS according to the following parameters: […]

[3] = after sustained oral administration

SMILES | Suppression of DHT production [1, 3] | Inhibition of the three 5-α-reductase isoforms (5-α-reductase) | Permeated Amount After 24 hours (dutasteride) [2] | Reduction of serum DHT levels [1, 3] | Typical reduction in DHT serum concentration ([1]; oral finasteride therapy, comparison value) | Inhibition of Type I 5-α-reductase (5-α-reductase) | Inhibition of Type II and Type III 5-α-reductase (5-α-reductase)
C[C@]12C=CC(=O)N[C@@H]1CC[C@@H]1[C@@H]2CC[C@]2(C)[C@@H](C(=O)Nc3cc(C(F)(F)F)ccc3C(F)(F)F)CC[C@@H]12 [Dutasteride] | up to 99% | inhibits all three 5-α-reductase isoforms | never detected | – | – | – | –
CC(C)(C)NC(=O)[C@H]1CC[C@H]2[C@@H]3CC[C@H]4NC(=O)C=C[C@]4(C)[C@H]3CC[C@]12C [Finasteride] | – | – | – | 65-70% | 60-70% | does not inhibit | selectively inhibits
